Results published in article PMC4763718 (MedChemComm, 2015).

Legend:
[1] = target: T1, cyclin G associated kinase (GAK) (Homo sapiens, UniProt O14976); assay: KINOMEscan competition binding assay
T1 sequence (O14976 1-1311): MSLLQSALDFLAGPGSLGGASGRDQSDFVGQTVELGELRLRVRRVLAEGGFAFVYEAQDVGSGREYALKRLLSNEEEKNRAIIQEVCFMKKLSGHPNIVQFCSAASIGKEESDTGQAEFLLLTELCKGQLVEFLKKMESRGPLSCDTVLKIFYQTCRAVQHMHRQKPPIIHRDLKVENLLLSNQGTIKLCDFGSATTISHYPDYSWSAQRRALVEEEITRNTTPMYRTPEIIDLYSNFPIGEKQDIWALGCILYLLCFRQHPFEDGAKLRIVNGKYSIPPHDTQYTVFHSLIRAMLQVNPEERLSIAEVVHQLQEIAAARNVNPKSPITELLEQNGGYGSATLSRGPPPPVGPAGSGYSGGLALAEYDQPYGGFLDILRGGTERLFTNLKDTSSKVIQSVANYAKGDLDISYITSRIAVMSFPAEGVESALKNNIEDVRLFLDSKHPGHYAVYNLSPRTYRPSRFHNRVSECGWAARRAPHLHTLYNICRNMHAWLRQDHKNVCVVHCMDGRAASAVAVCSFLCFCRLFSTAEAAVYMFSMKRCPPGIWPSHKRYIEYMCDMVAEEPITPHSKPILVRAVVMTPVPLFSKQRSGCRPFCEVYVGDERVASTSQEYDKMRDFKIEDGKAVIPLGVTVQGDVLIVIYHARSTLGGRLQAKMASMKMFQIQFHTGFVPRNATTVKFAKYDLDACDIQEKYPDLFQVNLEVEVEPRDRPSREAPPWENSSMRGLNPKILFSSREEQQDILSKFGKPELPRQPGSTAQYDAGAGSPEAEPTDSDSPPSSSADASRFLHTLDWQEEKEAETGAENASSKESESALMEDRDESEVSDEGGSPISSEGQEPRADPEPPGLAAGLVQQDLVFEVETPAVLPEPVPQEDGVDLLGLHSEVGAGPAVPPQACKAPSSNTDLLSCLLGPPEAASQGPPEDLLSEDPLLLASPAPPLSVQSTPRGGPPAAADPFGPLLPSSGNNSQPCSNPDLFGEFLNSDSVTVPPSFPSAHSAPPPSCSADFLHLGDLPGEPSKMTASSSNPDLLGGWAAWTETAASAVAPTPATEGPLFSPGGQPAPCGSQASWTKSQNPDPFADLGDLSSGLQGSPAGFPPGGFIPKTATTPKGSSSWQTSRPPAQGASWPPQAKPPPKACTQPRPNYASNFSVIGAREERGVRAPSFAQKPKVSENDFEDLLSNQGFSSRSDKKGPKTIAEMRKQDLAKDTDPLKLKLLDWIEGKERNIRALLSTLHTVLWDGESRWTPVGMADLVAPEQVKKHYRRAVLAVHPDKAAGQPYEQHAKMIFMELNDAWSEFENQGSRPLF

J6/JFH(p7-Rluc2A) HCV = type: cell-based, hepatitis C virus

GAK affinity (in words) [1] | Structure (SMILES) | effect on HCV replication (in words) (J6/JFH(p7-Rluc2A) HCV)
reduced the affinity to GAK | COc1ccc(-c2cnc3c(NC(=O)C4CCCCCC4)snc3c2)cc1OC [Compound 5h] | –
completely abolished GAK affinity | CCCCCOc1snc2cc(-c3ccc(OC)c(OC)c3)cnc12 [Compound 8e] | –
– | CC(C)Oc1snc2cc(-c3ccsc3)cnc12 [Compound 8j] | minimal to no effect
reduced the affinity to GAK | COc1ccc(-c2cnc3c(NC(=O)C4CCOCC4)snc3c2)cc1OC [Compound 5i] | –
reduced the affinity to GAK | COc1ccc(-c2cnc3c(NC(=O)C4CC=CC4)snc3c2)cc1OC [Compound 5g] | –
inactive | COc1ccc(-c2cnc3c(N4CCN(C(=O)c5ccccc5)CC4)snc3c2)cc1OC [Compound 8q] | –

Structure (SMILES) | GAK affinity (in words) [1] | effect on HCV replication (in words) (J6/JFH(p7-Rluc2A) HCV)
CCCCN1CCN(c2snc3cc(-c4ccc(OC)c(OC)c4)cnc23)CC1 [Compound 8m] | did not lead to any improvement in GAK affinity | –
COc1ccc(-c2cnc3c(N4CCN(c5ccncc5)CC4)snc3c2)cc1OC [Compound 8n] | did not lead to any improvement in GAK affinity | –
COc1ccc(-c2cnc3c(N4CCN(C(C)C)CC4)snc3c2)cc1OC [Compound 8l] | did not lead to any improvement in GAK affinity | –
